Assay results published in PubChem BioAssay AID248 (DTP/NCI, 2004).
Values joined by “and” are separate entries in the source; they are usually repeats but may differ in a detail not shown here. Identical values can stand only once. Toxic doses and inconclusive results are not listed. No stated cut-off is given here; in the data, active means T/C of 150% or more; inactive means T/C below 125%.

System: L1210 leukemia ip in BDF1 mice, survival T/C
Test: NCI In Vivo Anticancer Drug Screen. Data for tumor model L1210 Leukemia (intraperitoneal) in B6D2F1 (BDF1) mice
Conditions: endpoint: mean survival time, higher = longer survival
Outline: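 Tumor was transplanted into mice, which were then dosed with test compound or vehicle alone. Survival was recorded for each group, and the treated figure was expressed relative to the control figure.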

[1] = dose: 25.0 mg/kg/injection, schedule: Q01DX009 (ip), vehicle: saline with Tween-80
[2] = dose: 50.0 mg/kg/injection, schedule: Q01DX009 (ip), vehicle: saline with Tween-80
[3] = dose: 100.0 mg/kg/injection, schedule: Q01DX009 (ip), vehicle: Klucel (hydroxypropylcellulose) (HPC)
[4] = dose: 100.0 mg/kg/injection, schedule: Q04DX003 (ip), vehicle: Klucel (hydroxypropylcellulose) (HPC)
[5] = dose: 200.0 mg/kg/injection, schedule: Q01DX009 (ip), vehicle: Klucel (hydroxypropylcellulose) (HPC)
[6] = dose: 200.0 mg/kg/injection, schedule: Q04DX003 (ip), vehicle: Klucel (hydroxypropylcellulose) (HPC)
[7] = dose: 400.0 mg/kg/injection, schedule: Q01DX009 (ip), vehicle: Klucel (hydroxypropylcellulose) (HPC)
[8] = dose: 400.0 mg/kg/injection, schedule: Q04DX003 (ip), vehicle: Klucel (hydroxypropylcellulose) (HPC)
[9] = dose: 12.5 mg/kg/injection, schedule: Q01DX009 (ip), vehicle: saline with Tween-80
[10] = dose: 12.5 mg/kg/injection, schedule: Q04DX003 (ip), vehicle: saline with Tween-80
[11] = dose: 25.0 mg/kg/injection, schedule: Q04DX003 (ip), vehicle: saline with Tween-80
[12] = dose: 50.0 mg/kg/injection, schedule: Q04DX003 (ip), vehicle: saline with Tween-80
[13] = dose: 100.0 mg/kg/injection, schedule: Q01DX001 (ip), vehicle: carboxymethylcellulose (CMC)
[14] = dose: 200.0 mg/kg/injection, schedule: Q01DX001 (ip), vehicle: carboxymethylcellulose (CMC)
[15] = dose: 400.0 mg/kg/injection, schedule: Q01DX001 (ip), vehicle: carboxymethylcellulose (CMC)
[16] = dose: 100.0 mg/kg/injection, schedule: Q04DX003 (ip), vehicle: saline with Tween-80
[17] = dose: 400.0 mg/kg/injection, schedule: Q04DX003 (ip), vehicle: saline with Tween-80
[18] = dose: 100.0 mg/kg/injection, schedule: Q01DX001 (ip), vehicle: saline
[19] = dose: 200.0 mg/kg/injection, schedule: Q01DX001 (ip), vehicle: saline
[20] = dose: 400.0 mg/kg/injection, schedule: Q01DX001 (ip), vehicle: saline

Measured: T/C

Cc1cc(C2=NCC(C)(C)S2)ccc1O
inactive: dose: 25.0 mg/kg/injection, schedule: Q01DX005 (ip), vehicle: saline with Tween-80 92 % of control | [1] 91 % of control | dose: 50.0 mg/kg/injection, schedule: Q01DX005 (ip), vehicle: saline with Tween-80 92 % of control | [2] 98 % of control | dose: 100.0 mg/kg/injection, schedule: Q01DX005 (ip), vehicle: saline with Tween-80 93 % of control and 105 % of control | dose: 100.0 mg/kg/injection, schedule: Q01DX009 (ip), vehicle: saline with Tween-80 98 % of control | dose: 100.0 mg/kg/injection, schedule: Q04DX002 (ip), vehicle: saline with Tween-80 100 % of control | dose: 200.0 mg/kg/injection, schedule: Q04DX002 (ip), vehicle: saline with Tween-80 96 % of control | dose: 400.0 mg/kg/injection, schedule: Q04DX002 (ip), vehicle: saline with Tween-80 88 % of control

O=C(Cc1cccc2ccccc12)NO
inactive: [3] 95 % of control | [4] 95 % of control | [5] 102 % of control | [6] 95 % of control | [7] 101 % of control | [8] 104 % of control

CNC(C)(C)C(SSSC(c1ccc(Cl)cc1)C(C)(C)NC)c1ccc(Cl)cc1 (stereo not given)
inactive: [9] 103 % of control | [10] 98 % of control | [1] 98 % of control | [11] 100 % of control | [2] 97 % of control | [12] 96 % of control

CC(=O)Nc1ccc(/C=N/NC(=O)C(O)(c2ccccc2)c2ccccc2)cc1
inactive: [13] 97 % of control | [14] 103 % of control | [15] 97 % of control

O=C(c1ccccc1)c1nonc1C(=O)c1ccccc1
inactive: dose: 100.0 mg/kg/injection, schedule: Q01DX009 (ip), vehicle: saline sonified 93 % of control | [16] 97 % of control | dose: 200.0 mg/kg/injection, schedule: Q01DX009 (ip), vehicle: saline sonified 90 % of control | dose: 200.0 mg/kg/injection, schedule: Q04DX003 (ip), vehicle: saline with Tween-80 92 % of control | dose: 400.0 mg/kg/injection, schedule: Q01DX009 (ip), vehicle: saline sonified 93 % of control | [17] 97 % of control

COc1ccc2c(c1)CC1(CC2)NCC(=O)NC1=O (stereo not given)
inactive: [13] 97 % of control | [14] 97 % of control | [15] 115 % of control

COC1(c2ccccc2)Oc2ccccc2C(=O)C1(O)C[N+](=O)[O-] (stereo not given)
inactive: dose: 50.0 mg/kg/injection, schedule: Q01DX001 (ip), vehicle: saline 95 % of control | [18] 89 % of control | [19] 95 % of control | [20] 101 % of control

CC(C)CC(CC(C)C)NCC(C)OC(=O)c1ccc(N)cc1 (stereo not given)
inactive: [9] 96 % of control and 104 % of control | [10] 92 % of control | [1] 102 % of control and 105 % of control | dose: 25.0 mg/kg/injection, schedule: Q01DX009 (ip), vehicle: saline 98 % of control | [11] 104 % of control | dose: 25.0 mg/kg/injection, schedule: Q04DX003 (ip), vehicle: saline 100 % of control | [2] 96 % of control and 106 % of control | dose: 50.0 mg/kg/injection, schedule: Q01DX009 (ip), vehicle: saline 100 % of control | [12] 93 % of control | dose: 50.0 mg/kg/injection, schedule: Q04DX003 (ip), vehicle: saline 96 % of control | dose: 75.0 mg/kg/injection, schedule: Q01DX001 (ip), vehicle: other 92 % of control | dose: 100.0 mg/kg/injection, schedule: Q01DX009 (ip), vehicle: saline 88 % of control | dose: 100.0 mg/kg/injection, schedule: Q04DX003 (ip), vehicle: saline 102 % of control and 91 % of control

COc1cc2c(cc1OC)/C(=C\C#N)NCC2
inactive: [18] 98 % of control | [19] 98 % of control | [20] 100 % of control

CC1(C)SC(C)(C)N(C=O)C1C(=O)O (stereo not given)
inactive: [18] 94 % of control | [3] 93 % of control | [4] 105 % of control | [19] 94 % of control | [5] 94 % of control | [6] 95 % of control | [20] 110 % of control | [7] 96 % of control | [8] 97 % of control

Cc1nnc(NS(=O)(=O)c2ccc(N=Nc3c(N)nc(N)[nH]c3=O)cc2)s1
inactive: dose: 5.0 mg/kg/injection, schedule: Q01DX001 (ip), vehicle: saline 105 % of control | dose: 10.0 mg/kg/injection, schedule: Q01DX001 (ip), vehicle: saline 102 % of control | dose: 20.0 mg/kg/injection, schedule: Q01DX001 (ip), vehicle: saline 98 % of control | dose: 40.0 mg/kg/injection, schedule: Q01DX001 (ip), vehicle: saline 102 % of control

NCCCOC12CC3CC(CC(C3)C1)C2
inactive: dose: 10.0 mg/kg/injection, schedule: Q04DX002 (ip), vehicle: saline 106 % of control | dose: 20.0 mg/kg/injection, schedule: Q04DX002 (ip), vehicle: saline 117 % of control | dose: 40.0 mg/kg/injection, schedule: Q04DX002 (ip), vehicle: saline 102 % of control

S=c1[nH]c2[nH]cnc(=S)c2[nH]1
inactive: [18] 97 % of control | [19] 97 % of control

CC(C)N(C(=O)Nc1ccc(Cl)cc1)C1CCCCC1
inactive: dose: 87.5 mg/kg/injection, schedule: Q04DX003 (ip), vehicle: carboxymethylcellulose (CMC) 101 % of control | dose: 175.0 mg/kg/injection, schedule: Q04DX003 (ip), vehicle: carboxymethylcellulose (CMC) 96 % of control | dose: 350.0 mg/kg/injection, schedule: Q04DX003 (ip), vehicle: carboxymethylcellulose (CMC) 95 % of control

C=C=CC(C)(C)C
inactive: [18] 96 % of control | [19] 96 % of control | dose: 200.0 mg/kg/injection, schedule: Q04DX003 (ip), vehicle: saline 100 % of control | [20] 96 % of control | dose: 400.0 mg/kg/injection, schedule: Q04DX003 (ip), vehicle: saline 100 % of control

OC(CNCCc1ccccc1)COc1cccc2ccccc12 (stereo not given)
inactive: dose: 25.0 mg/kg/injection, schedule: Q04DX003 (ip), vehicle: Klucel (hydroxypropylcellulose) (HPC) 97 % of control | dose: 50.0 mg/kg/injection, schedule: Q04DX003 (ip), vehicle: Klucel (hydroxypropylcellulose) (HPC) 95 % of control | [4] 95 % of control

Cn1c(=O)c2c(nc(C3CC4C5CCC(C5)C4C3)n2C)n(C)c1=O (stereo not given)
inactive: [13] 103 % of control | [14] 95 % of control | [15] 95 % of control

O=C(CC(=O)Nc1ccc([N+](=O)[O-])cc1)Nc1ccc([N+](=O)[O-])cc1
inactive: [16] 87 % of control | [17] 92 % of control

CNC(=O)Oc1ccccc1CCl
inactive: dose: 50.0 mg/kg/injection, schedule: Q01DX001 (ip), vehicle: Klucel (hydroxypropylcellulose) (HPC) 97 % of control | dose: 100.0 mg/kg/injection, schedule: Q01DX001 (ip), vehicle: Klucel (hydroxypropylcellulose) (HPC) 97 % of control | dose: 200.0 mg/kg/injection, schedule: Q01DX001 (ip), vehicle: Klucel (hydroxypropylcellulose) (HPC) 92 % of control
